# Results as given in patent US12409139B2, “Stable parenteral formulations of duloxetine” (LEIUTIS PHARMACEUTICALS LLP, priority 2020, dated 2025).
# Where two headings read alike, the source gives them in different places.
# Columns and labels:
# [1] = for Assay (%) / Total Impurities / pH: RT-25° C.
# Experimental: The solution state stability of duloxetine was studied in various buffers for 24 hours.
# The samples were stored for 24 hours and analyzed for pH, assay and total impurities by standard analytical procedures.
# [2] = commercial delayed release (enteric coated) capsules, oral; cited from earlier work
# [3] = Acetate Buffer (pH-5.5), Initial
# [4] = Acetate Buffer (pH-6.4), Initial
# [5] = Aspartic acid + Boric Acid Buffer (pH-5.5), 24 h
# [6] = Aspartic acid + Boric Acid Buffer (pH-5.5), Initial
# [7] = Aspartic acid + Boric Acid Buffer (pH-6.4), 24 h
# [8] = Aspartic acid + Boric Acid Buffer (pH-6.4), Initial
# [9] = Glycine Buffer (pH-5.5), Initial
# [10] = Glycine Buffer (pH-6.4), Initial
# 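Wherever Solubility observation is given: solubility and solution-stability study of the drug dissolved in assorted buffers across a range of pH values.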
smiles,measurement,setting,value
"CNCCC(Oc1cccc2ccccc12)c1cccs1 (single isomer, unassigned; (+)) [duloxetine, (+)-N-methyl-3-(1-naphthalenyloxy)-3-(2-thienyl) propan-1-amine]",Assay (%),"[1]; Acetate Buffer (pH-5.5), 24 h",92.4%
same,Total Impurities,"[1]; Acetate Buffer (pH-5.5), 24 h",0.2
same,pH,"[1]; Acetate Buffer (pH-5.5), 24 h",5.4
same,Assay (%),[1]; [3],93.9%
same,Total Impurities,[1]; [3],0.14
same,pH,[1]; [3],5.32
same,Assay (%),"[1]; Acetate Buffer (pH-6.4), 24 h",90.3%
same,Total Impurities,"[1]; Acetate Buffer (pH-6.4), 24 h",0.1
same,pH,"[1]; Acetate Buffer (pH-6.4), 24 h",6.1
same,Assay (%),[1]; [4],94.3%
same,Total Impurities,[1]; [4],0.1
same,pH,[1]; [4],6.38
same,Assay (%),[1]; [5],93.3%
same,Total Impurities,[1]; [5],0.5
same,pH,[1]; [5],5.7
same,Assay (%),[1]; [6],93.0%
same,Total Impurities,[1]; [6],0.3
same,pH,[1]; [6],5.8
same,Assay (%),[1]; [7],97.8%
same,Total Impurities,[1]; [7],0.5
same,pH,[1]; [7],6.5
same,Assay (%),[1]; [8],97.9%
same,Total Impurities,[1]; [8],0.3
same,pH,[1]; [8],6.6
same,Assay (%),"[1]; Glycine Buffer (pH-5.5), 24 h",104.8%
same,Total Impurities,"[1]; Glycine Buffer (pH-5.5), 24 h",0.2
same,pH,"[1]; Glycine Buffer (pH-5.5), 24 h",5.5
same,Assay (%),[1]; [9],105%
same,Total Impurities,[1]; [9],0.12
same,pH,[1]; [9],5.59
same,Assay (%),"[1]; Glycine Buffer (pH-6.4), 24 h",96.6%
same,Total Impurities,"[1]; Glycine Buffer (pH-6.4), 24 h",0.18
same,pH,"[1]; Glycine Buffer (pH-6.4), 24 h",6.35
same,Assay (%),[1]; [10],97.7%
same,Total Impurities,[1]; [10],0.10
same,pH,[1]; [10],6.23
same,Solution state stability in terms of assay and total impurities (in words),"[1]; acetate buffer at pH-5.5 and pH-6.4 and glycine buffer at pH-5.5 and pH-6.4, 24 hours",best results
same,Solution state stability (in words),"[1]; all the buffers tested, stored for 24 hours",satisfactory stability
same,Solubility observation,"0.1N Sodium hydroxide buffer, pH 4.5, 10 mg/ml",Insoluble
same,Solubility observation,"0.1N Sodium hydroxide buffer, pH 5.5, 10 mg/ml",Insoluble
same,Solubility observation,"0.1N Sodium hydroxide buffer, pH 6.4, 10 mg/ml",Insoluble
same,Solubility observation,"Acetate buffer, pH 4.5, 10 mg/ml",Clear solution
same,Solubility observation,"Acetate buffer, pH 5.5, 10 mg/ml",Clear solution
same,Solubility observation,"Acetate buffer, pH 6.4, 10 mg/ml",Clear solution
same,Solubility observation,"Acetate buffer, pH 7.5, 10 mg/ml",Clear solution
same,Solubility observation,"Alanine buffer, pH 4.5, 10 mg/ml",Clear solution
same,Solubility observation,"Alanine buffer, pH 5.5, 10 mg/ml",Clear solution
same,Solubility observation,"Alanine buffer, pH 6.4, 10 mg/ml",Insoluble
same,Solubility observation,"Aspartic acid and Boric acid buffer, pH 4.5, 10 mg/ml",Clear solution
same,Solubility observation,"Aspartic acid and Boric acid buffer, pH 5.5, 10 mg/ml",Clear solution
same,Solubility observation,"Aspartic acid and Boric acid buffer, pH 6.4, 10 mg/ml",Insoluble
same,Solubility observation,"Citrate buffer, pH 4.5, 10 mg/ml",Insoluble
same,Solubility observation,"Citrate buffer, pH 5.5, 10 mg/ml",Insoluble
same,Solubility observation,"Citrate buffer, pH 6.4, 10 mg/ml",Insoluble
same,Solubility observation,"Glycine buffer, pH 4.5, 10 mg/ml",Clear solution
same,Solubility observation,"Glycine buffer, pH 5.5, 10 mg/ml",Clear solution
same,Solubility observation,"Glycine buffer, pH 6.4, 10 mg/ml",Clear solution
same,Solubility observation,"Glycine buffer, pH 7.5, 10 mg/ml",Clear solution
same,Solubility observation,"Histidine buffer, pH 4.5, 10 mg/ml",Insoluble
same,Solubility observation,"Histidine buffer, pH 5.5, 10 mg/ml",Insoluble
same,Solubility observation,"Histidine buffer, pH 6.4, 10 mg/ml",Insoluble
same,Solubility observation,"Isoleucine buffer, pH 4.5, 10 mg/ml",Clear solution
same,Solubility observation,"Isoleucine buffer, pH 5.5, 10 mg/ml",Clear solution
same,Solubility observation,"Isoleucine buffer, pH 6.4, 10 mg/ml",Clear solution
same,Solubility observation,"Isoleucine buffer, pH 7.5, 10 mg/ml",Clear solution
same,Solubility observation,"Lactic acid buffer, pH 4.5, 10 mg/ml",Clear solution
same,Solubility observation,"Lactic acid buffer, pH 5.5, 10 mg/ml",Clear solution
same,Solubility observation,"Lactic acid buffer, pH 6.4, 10 mg/ml",Clear solution
same,Solubility observation,"Lactic acid buffer, pH 7.5, 10 mg/ml",Clear solution
same,Solubility observation,"Leucine buffer, pH 4.5, 10 mg/ml",Clear solution
same,Solubility observation,"Leucine buffer, pH 5.5, 10 mg/ml",Clear solution
same,Solubility observation,"Leucine buffer, pH 6.4, 10 mg/ml",Clear solution
same,Solubility observation,"Leucine buffer, pH 7.5, 10 mg/ml",Clear solution
same,Solubility observation,"Lysine buffer, pH 4.5, 10 mg/ml",Insoluble
same,Solubility observation,"Lysine buffer, pH 5.5, 10 mg/ml",Insoluble
same,Solubility observation,"Lysine buffer, pH 6.4, 10 mg/ml",Insoluble
same,Solubility observation,"Meglumine buffer, pH 4.5, 10 mg/ml",Insoluble
same,Solubility observation,"Meglumine buffer, pH 5.5, 10 mg/ml",Insoluble
same,Solubility observation,"Meglumine buffer, pH 6.4, 10 mg/ml",Insoluble
same,Solubility observation,"Methionine buffer, pH 4.5, 10 mg/ml",Clear solution
same,Solubility observation,"Methionine buffer, pH 5.5, 10 mg/ml",Clear solution
same,Solubility observation,"Methionine buffer, pH 6.4, 10 mg/ml",Clear solution
same,Solubility observation,"Methionine buffer, pH 7.5, 10 mg/ml",Clear solution
same,Solubility observation,"Phenyl alanine buffer, pH 4.5, 10 mg/ml",Clear solution
same,Solubility observation,"Phenyl alanine buffer, pH 5.5, 10 mg/ml",Clear solution
same,Solubility observation,"Phenyl alanine buffer, pH 6.4, 10 mg/ml",Insoluble
same,Solubility observation,"Phosphate buffer, pH 4.5, 10 mg/ml",Clear solution
same,Solubility observation,"Phosphate buffer, pH 5.5, 10 mg/ml",Insoluble
same,Solubility observation,"Phosphate buffer, pH 6.4, 10 mg/ml",Insoluble
same,Solubility observation,"Proline buffer, pH 4.5, 10 mg/ml",Clear solution
same,Solubility observation,"Proline buffer, pH 5.5, 10 mg/ml",Clear solution
same,Solubility observation,"Proline buffer, pH 6.4, 10 mg/ml",Clear solution
same,Solubility observation,"Proline buffer, pH 7.5, 10 mg/ml",Clear solution
same,Solubility observation,"Serine buffer, pH 4.5, 10 mg/ml",Clear solution
same,Solubility observation,"Serine buffer, pH 5.5, 10 mg/ml",Clear solution
same,Solubility observation,"Serine buffer, pH 6.4, 10 mg/ml",Clear solution
same,Solubility observation,"Serine buffer, pH 7.5, 10 mg/ml",Insoluble
same,Solubility observation,"Sodium phosphate buffer, pH 4.5, 10 mg/ml",Clear solution
same,Solubility observation,"Sodium phosphate buffer, pH 5.5, 10 mg/ml",Insoluble
same,Solubility observation,"Sodium phosphate buffer, pH 6.4, 10 mg/ml",Insoluble
same,Solubility observation,"Succinate buffer, pH 4.5, 10 mg/ml",Clear solution
same,Solubility observation,"Succinate buffer, pH 5.5, 10 mg/ml",Insoluble
same,Solubility observation,"Succinate buffer, pH 6.4, 10 mg/ml",Insoluble
same,Solubility observation,"Tartaric acid buffer, pH 4.5, 10 mg/ml",Insoluble
same,Solubility observation,"Tartaric acid buffer, pH 5.5, 10 mg/ml",Insoluble
same,Solubility observation,"Tartaric acid buffer, pH 6.4, 10 mg/ml",Insoluble
same,Solubility observation,"Tris buffer, pH 4.5, 10 mg/ml",Insoluble
same,Solubility observation,"Tris buffer, pH 5.5, 10 mg/ml",Insoluble
same,Solubility observation,"Tris buffer, pH 6.4, 10 mg/ml",Insoluble
same,Solubility observation,"Tryptophan buffer, pH 4.5, 10 mg/ml",Clear solution
same,Solubility observation,"Tryptophan buffer, pH 5.5, 10 mg/ml",Clear solution
same,Solubility observation,"Tryptophan buffer, pH 6.4, 10 mg/ml",Clear solution
same,Solubility observation,"Tryptophan buffer, pH 7.5, 10 mg/ml",Clear solution
same,Solubility observation,"Valine buffer, pH 4.5, 10 mg/ml",Clear solution
same,Solubility observation,"Valine buffer, pH 5.5, 10 mg/ml",Clear solution
same,Solubility observation,"Valine buffer, pH 6.4, 10 mg/ml",Clear solution
same,Solubility observation,"Valine buffer, pH 7.5, 10 mg/ml",Clear solution
same,time for the absorption to begin,[2],2 h
